Assay [1] has as its target Human ACLY (Homo sapiens (Human), UniProt P53396). In words: ACLY enzyme activity test (ADP-Glo luminescence). Format: biochemical. Particulars: 37° C., 30 minutes. An excerpt: • Instrument: Envision (PerkinElmer, USA) • Materials: Acl—human ACLY/acly/ATP citrate lyase protein (His tag) was purchased from Sino Biological; kinase assay kit ADP-GLO (promega #V9102).
Experimental principle: In this experiment, the ATP-dependent citrate lyase ACL catalyzes the conversion of citrate to acetyl coenzyme A, which in turn produces malonyl coenzyme A, a precursor molecule for fatty acid synthesis, and this reaction is accompanied by ATP depletion, so the change in ATP can be detected using the ADP-Glo Kinase Assay (#V9102) to indirectly reflect the inhibitory effect of the compound on the enzymatic activity of ACL. This kinase detection kit can quantitatively determine the amount of ADP catalyzed by ACLY enzyme activity. (First, the compound, the enzyme and the substrate are incubated at 37 degrees for half an hour, ADP-Glo& #V9102; reagent is added and incubated for half an hour to terminate the reaction and consume the remaining ATP; then the kinase detection reagent is added (which converts the ADP to ATP while also detecting the newly synthesized ATP using the coupled […] reaction) and incubated for half an hour. The value is read by using Envision.
Experimental method: ADP Glo luminescence method was used for determination. It reflects the activity of ACLY enzyme by quantitatively detecting the amount of ADP, and the enzymatic reaction catalyzed by ACLY is proportional to the amount of ADP detected by the luminescent signal. Firstly, the compound is diluted with 10% DMSO, and then […] of compound dilution is added to a 5 μl reaction system, so that the final reaction system has a DMSO content of 2%. The enzymatic reaction catalyzed by ACLY was carried out at 37° C. for 30 minutes. 5 μl reaction mixture contained the following components: 40 mM Tris, pH 8.0, 10 mM MgCl2, 5 mM DTT, ATP, CoA, sodium citrate, and ACLY. After the enzymatic reaction was complete, 2.5 μl of ADP Glo reagent was added to each reaction system and incubated at room temperature for 1 hour. Afterwards, 5 μl of kinase detection reagent was added and incubated at room temperature for 30 minutes. The luminous signal was detected using Envision (PerkinElmer, USA).
Data processing: For compound, the activity dose dependent relationship was tested. IC50 value was obtained by non-linear fitting of sample concentration based on sample activity. The software used for calculation was Graphpad Prism 7, and the model used for fitting was sigmoid dose response (variable slope). For most inhibitor screening models, the bottom and top of the fitting curve were set to 0 and 100. In general, each sample is set with multiple wells (n≥2) during testing, which are represented in the results as Standard Deviation (SD) or Standard Error (SE).
In general terms: ADP-Glo turns the ADP formed in a reaction into a luminescent signal.

For assay [2], the system named is breast cancer cell MCF-7. In words: MTS cell proliferation assay, MCF-7. Format: cell-based. Particulars: MCF-7, MTS, read-out: IC50, inhibition of proliferation, MCF-7. An excerpt: (§1) Experimental principle: CellTier 96 ® AQueous One Solution Cell Proliferation Assay (MTS) colorimetric method was used to detect cell proliferation. This analysis method is based on the tetrazole compound (3-(4,5-dimethylthiazol-2-yl)-5-(3-carboxymethoxyphenyl)-2-(4-sulfophenyl)-2H-tetrazolium, internal salt; MTS). The conversion of yellow MTS to blue purple water-soluble formazan is catalyzed by dehydrogenase, which exists in living cells with metabolic activity; Dead cells cannot complete the transformation from MTS to formamide. The amount of formazan determined by absorbance at 490 nm is directly proportional to the number of live cells in culture.
(§2) Sample processing: Dissolve the sample in DMSO and store it at low temperature.
(§3) Cell survival rate was detected by using MTS method, that is, adherent cells growing in logarithmic phase were digested with 0.025% trypsin, and counted; 80 μl cells were inoculated into a 96 well plate at a density of 3000 cells/well for A549 and 5000 cells/well for H358 (all cultured under 1% FBS conditions), and grown overnight in a 5% CO2 and 37° C. incubator. Each compound was diluted with a three-fold concentration gradient, eight concentrations were tested, and three wells were set for each concentration. 20 μl of the diluted compounds was added to the corresponding cell wells. Adherent cells A549 and H358 were cultured in a 5% CO2 and 37° C. incubator for 72 hours; 20 μl of MTS was added separately and incubated for 2 hours in a 5% CO2 and 37° C. incubator. Molecular Device VersaMax was used to test the light absorption value at 490 nm (L1), with a reference wavelength of 690 nm (L2). The (L1−L2) values were plotted against different concentrations of inhibitors and IC50 was obtained by fitting the formula.
(§4) The experimental results were fitted to the IC50 using Graphpad Prism 7. The model used for fitting was log(inhibitor) vs Response—variable slop, and the results of each assay were equipped with triple replicate wells to ensure the accuracy of the experiment. The results were expressed as Standard Deviation (SD) or Standard Error (SE).
(§5) Similarly, the antiproliferative assays of the compounds on pancreatic cancer cell line ASPC-1, human pancreatic cancer cell MIA-PACA and breast cancer cell MCF-7 were performed as above.

The test system of assay [3] is pancreatic cancer cell line ASPC-1. In words: MTS cell proliferation assay, ASPC-1. Particulars: ASPC-1, MTS, read-out: IC50, inhibition of proliferation, ASPC-1. Format: cell-based.
Source text: as §1, §2, §3, §4, §5
A general note: Formazan colour is commonly taken as a measure of viable cells.

The subject of assay [4] is NCI-H358 cells. In words: MTS cell proliferation assay, H358. To be noted: 1% FBS, read-out: IC50, inhibition of proliferation, H358. Format: cell-based, human.
Source text: Experimental materials: NCI-H358 cells (H358, human non-small cell lung cancer cells) were purchased from the cell bank/stem cell bank of the Chinese Academy of Sciences; RPMI-1640 culture medium (GIBCO, product number 3180002), and human tumor cell non-small cell lung cancer cell A549 were gifted by the research group of researcher Li Jia from SHANGHAI INSTITUTE OF MATERIA MEDICA, CHINESE ACADEMY OF SCIENCES. CellTier 96® The Aquarius One Solution Cell Promotion Assay (MTS) was purchased from Promega #G3581.
as §1, §2, §3, §4

The subject of assay [5] is human pancreatic cancer cell MIA-PACA. The experiment in a line: MTS cell proliferation assay, MIA-PACA. Format: cell-based.
Source text: as §1, §2, §3, §4, §5

Where [6] appears, read: Homo sapiens, NCI-H358, H358, 72 hours.
The mark [7] stands for this setting: Homo sapiens, MIA PaCa-2, read-out: IC50, inhibition of proliferation, MIA-PACA.

The structures appear in SMILES notation. Read-outs that look alike come from different tables or passages of the source.

Chain of Human ACLY (P53396 whole entry): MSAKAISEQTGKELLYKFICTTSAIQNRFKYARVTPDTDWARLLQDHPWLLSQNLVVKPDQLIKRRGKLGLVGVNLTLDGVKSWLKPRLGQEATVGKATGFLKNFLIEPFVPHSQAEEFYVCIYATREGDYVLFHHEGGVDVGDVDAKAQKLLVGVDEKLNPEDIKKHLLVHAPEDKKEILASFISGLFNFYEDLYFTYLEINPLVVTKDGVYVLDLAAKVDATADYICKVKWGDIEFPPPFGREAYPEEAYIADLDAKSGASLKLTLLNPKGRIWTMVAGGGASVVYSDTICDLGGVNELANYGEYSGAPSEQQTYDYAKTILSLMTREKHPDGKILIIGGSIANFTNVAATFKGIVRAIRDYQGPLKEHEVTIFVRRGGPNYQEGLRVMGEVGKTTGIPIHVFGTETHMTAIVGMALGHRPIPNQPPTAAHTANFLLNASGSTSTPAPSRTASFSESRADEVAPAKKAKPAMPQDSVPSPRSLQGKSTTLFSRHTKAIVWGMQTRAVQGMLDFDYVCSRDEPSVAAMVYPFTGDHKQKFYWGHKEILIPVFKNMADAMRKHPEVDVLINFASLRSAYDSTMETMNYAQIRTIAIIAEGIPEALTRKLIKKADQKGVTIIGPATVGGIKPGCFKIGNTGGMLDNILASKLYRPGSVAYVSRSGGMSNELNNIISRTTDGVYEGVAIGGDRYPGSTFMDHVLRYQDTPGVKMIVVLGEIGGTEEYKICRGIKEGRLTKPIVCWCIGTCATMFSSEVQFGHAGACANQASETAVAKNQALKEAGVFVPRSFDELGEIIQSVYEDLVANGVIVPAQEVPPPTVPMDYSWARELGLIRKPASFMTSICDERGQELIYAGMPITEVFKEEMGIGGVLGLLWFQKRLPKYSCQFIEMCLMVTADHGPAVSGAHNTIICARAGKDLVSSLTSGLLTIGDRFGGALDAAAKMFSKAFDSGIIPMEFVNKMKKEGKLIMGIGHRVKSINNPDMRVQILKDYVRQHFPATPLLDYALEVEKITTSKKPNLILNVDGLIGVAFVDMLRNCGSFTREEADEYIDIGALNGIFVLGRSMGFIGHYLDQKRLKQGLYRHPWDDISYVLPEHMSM

Take `CC(CCCCCCC=CCCCCCCC(C)(C(=O)O)c1ccccc1)(C(=O)O)c1ccccc1` (centres unmarked) [Compound M1]: the IC50 in assay [1] amounted to 1.7 ± 0.3 µM.
Still for that read-out and setting: with `O=C(O)C1(CCCCCC/C=C\CCCCCCC2(C(=O)O)CCCC2)CCCC1` [Compound M4] the figure was 22.6 ± 2.7 µM; with `O=C(O)C1(CCCCCC/C=C\CCCCCCCC2(C(=O)O)CC=CC2)CC=CC1` [Compound M3], 1 ± 0.13 µM.
`O=C(O)C1(CCCCCC/C=C\CCCCCCC2(C(=O)OCCc3ccc(F)cc3)C=CCC2)C=CCC1` (centres unmarked) [Compound M25]: the IC50 in assay [2] (Homo sapiens, MCF7) is 5.7 ± 1.5 µM; in assay [3] (Homo sapiens, ASPC1), 29.2 ± 11.4 µM; in assay [1], 4 ± 0.86 µM; in assay [4] (setting [6]), 5.6 ± 0.5 µM; in assay [5] (setting [7]) it was 11.9 ± 2.7 µM.
As for `Cc1ncsc1-c1ccc([C@H](C)NC(=O)[C@@H]2C[C@@H](O)CN2C(=O)[C@@H](NC(=O)C(C)(C)CCCCCC/C=C\CCCCCCC(C)(C)C(=O)O)C(C)(C)C)cc1` [Compound M34], the IC50 in assay [1] was found to be 10.2 ± 0.3 µM.
Still for that read-out and setting: with `C=CC(C)(CCCCCC/C=C\CCCCCCC(C)(C=C)C(=O)O)C(=O)O` (centres unmarked) [Compound M7] the figure was 4.1 ± 1.7 µM; with `O=C(O)C1(CCCCCC/C=C\CCCCCCCC2(C(=O)O)CC=CCC2)CC=CCC1` (centres unmarked) [Compound M12], 3.9 ± 0.2 µM.
As to `O=C(O)C1(CCCCCC/C=C\CCCCCCC2(C(=O)OCCc3ccc4ccccc4c3)C=CCC2)C=CCC1` (centres unmarked) [Compound M29], the IC50 in assay [2] (Homo sapiens, MCF7) is 6.5 ± 0.4 µM; in assay [3] (Homo sapiens, ASPC1), 28 ± 10.1 µM; in assay [1] it was 5.8 ± 1.8 µM; in assay [4] (setting [6]), 9 ± 1.9 µM; in assay [5] (setting [7]), 12.8 ± 1.6 µM.
Consider `O=C(O)C1(CCCCCC/C=C\CCCCCCC2(C(=O)OCCc3ccccc3F)C=CCC2)C=CCC1` (centres unmarked) [Compound M23], for which the IC50 in assay [1] was found to be 3.3 ± 0.72 µM.
Turning to `COC(=O)c1cc(Cl)c(O)c(S(=O)(=O)Nc2cc(-c3ccccc3)c(F)cc2F)c1` [NDI-091143, reference compound], the IC50 stood at 84.8 ± 45.3 µM in assay [2] (Homo sapiens, MCF7); 83.3 ± 34.7 µM in assay [3] (Homo sapiens, ASPC1); 0.0021 ± 0.0004 µM in assay [1]; 50.2 ± 27.7 µM in assay [4] (setting [6]); 40.9 ± 14.3 µM in assay [5] (setting [7]).
As for `O=C(O)C1(CCCCCCC=CCCCCCCC2(C(=O)OCCc3ccc(Cl)cc3Cl)C=CCC2)C=CCC1` (centres unmarked) [Compound M19], the IC50 in assay [2] came out at 3.9 ± 0.5 µM; in assay [3], 2.7 ± 1 µM; in assay [1] it was 3.1 ± 1.3 µM; in assay [4] (H358, 72 hours), 3.5 ± 0.4 µM; in assay [5] (read-out: IC50, inhibition of proliferation, MIA-PACA), 1.9 ± 0.5 µM.
As to `O=C(O)C1(CCCCCC/C=C\CCCCCCC2(C(=O)OCCCc3ccc(Cl)cc3Cl)C=CCC2)C=CCC1` (centres unmarked) [Compound M28], in assay [1], the IC50 was 17 ± 2.5 µM.
`COc1ccc(CCOC(=O)C2(CCCCCC/C=C\CCCCCCC3(C(=O)O)C=CCC3)C=CCC2)cc1` (centres unmarked) [Compound M32] displayed an IC50 in assay [1] of 4.6 ± 1.3 µM.
Still for that read-out and setting: with `O=C(O)C1(CCCCC/C=C\CCCCCCC2(C(=O)O)C=CCC2)C=CCC1` (centres unmarked) [Compound M14] the figure was 7 ± 0.16 µM.
For `O=C(O)C1(CCCCCC/C=C\CCCCCCC2(C(=O)O)CC=CCC2)CC=CCC1` (centres unmarked) [Compound M6], the IC50 in assay [1] was determined as 5.3 ± 0.98 µM.
In assay [1], `CC(CCCC/C=C\CCCCCC(C)(C(=O)O)c1ccccc1)(C(=O)O)c1ccccc1` (centres unmarked) [Compound M9] came in with an IC50 of 11.2 ± 1.61 µM.

The values are drawn from US20250011272A1, “LONG-CHAIN COMPOUND THAT ACTS ON ACLY, PREPARATION METHOD THEREFOR AND USE THEREOF” (SHANGHAIINSTITUTE OF MATERIA MEDICA, CHINESE ACADEMY OF …, priority 2021, published 2025).
